Where a name gives a salt, the structure may show the parent alone.
Assays:
Human GPR40 [1] = target: T1, Human GPR40 (Homo sapiens, UniProt O14842); experiment: FLIPR assay: agonist-induced calcium mobilization in GPR40/CHO NFAT BLA cells; type: cell-based; design: expressed in transfected cells; host or cells: CHO cells stably expressing NFAT BLA (beta-lactamase)
Description: (§1) Human and mouse GPR40 stable cell-lines were generated in CHO cells stably expressing NFAT BLA (Beta-lactamase). A human GPR40 stable cell-line was generated in HEK cells stably expressing the aequorin expressing reporter. The expression plasmids were transfected using lipofectamine, LIFE TECHNOLOGIES (Carlsbad, Calif.), following manufacturer's instructions. Stable cell-lines were generated following drug selection.
FLIPR (Fluorimetric Imaging Plate Reader, Molecular Devices) assays were performed to measure agonist-induced calcium mobilization of the stable clones. For the FLIPR assay, one day before assay, GPR40/CHO NFAT BLA cells were seeded into black-wall-clear-bottom 384-well plates (Costar) at 1.4×10e4 cells/20 μL medium/well. The cells were incubated with 20 μl/well of the assay buffer (HBSS, 0.1% BSA, 20 mM HEPES, 2.5 mM probenecid, pH 7.4) containing 8 μM fluo-4, AM, 0.08% pluronic acid at room temperature for 100 minutes. Fluorescence output was measured using FLIPR. Compounds were dissolved in DMSO and diluted to desired concentrations with assay buffer. 13.3 μL/well of compound solution was added. The activities of the compounds in the examples have EC50 (effective concentration of compound to afford 50% of the maximum observed fluorescence) values listed in Table I.

Human GPR40 [2] = target: T1, Human GPR40; experiment: Inositol phosphate turnover (IP1) assay in HEK cells stably expressing human GPR40; type: cell-based; design: expressed in transfected cells; conditions: HEK cells stably expressing human GPR40, 3H-inositol labeling, 60 min compound incubation
Protocol: as §1
The assay is performed in a 96-well format. HEK cells stably expressing human GPR40 are plated to be 60-80% confluent within 72 h. After 72 h, the plates are aspirated and the cells washed with inositol-free DMEM (ICN). The wash media is replaced with 150 μL of 3H-inositol labeling media (inositol-free media containing 0.4% human albumin or 0.4% mouse albumin, 1× pen/strep antibiotics, glutamine, 25 mM HEPES to which is added 3H-myo-inositol NEN #NET114A 1 mCi/mL, 25 Ci/mmol diluted 1:150 in loading media with a final specific radioactivity of 1 μCi/150 μL). Alternatively, the human and mouse albumin can be added after the overnight labeling step before the addition of LiCl.
The assay is typically run the next day after 18 h labeling. On the day of the assay, 5 μL of 300 mM LiCl is added to all wells and incubated at 37 degrees for 20 min. 0.75 μL of 200× compounds are added and incubated with the cells for 60 min at 37 degrees. The media is then aspirated off and the assay terminated with the addition of 60 μL 10 mM formic acid. The cells are lysed for 60 min at room temperature. 15-30 μL of lysate is mixed with 70 μL/1 mg YSi SPA beads AMERSHAM (United Kingdom) in clear bottom Isoplates. The plates are shaken for 2 h at room temperature. Beads are allowed to settle and the plates are counted in the Wallac MICROBETA instrument. The activities of the compounds in the examples have EC50 (effective concentration of compound to afford 50% of the maximum observed […]) values listed in Table I.

T1 sequence (O14842 whole entry): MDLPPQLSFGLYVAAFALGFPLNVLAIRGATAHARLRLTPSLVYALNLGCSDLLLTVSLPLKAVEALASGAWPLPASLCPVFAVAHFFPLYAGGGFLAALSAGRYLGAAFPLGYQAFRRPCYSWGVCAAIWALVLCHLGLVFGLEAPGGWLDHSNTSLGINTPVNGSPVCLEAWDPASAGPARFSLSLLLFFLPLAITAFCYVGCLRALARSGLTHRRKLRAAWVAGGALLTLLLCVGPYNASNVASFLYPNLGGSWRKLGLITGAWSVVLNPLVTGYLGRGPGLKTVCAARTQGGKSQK

| SMILES | EC50 (Human GPR40 [1]) [nM] | EC50 (Human GPR40 [2]) [nM] |
| --- | --- | --- |
| Cc1cc(OCCC2(O)COC2)ncc1-c1ccc(F)c(COc2ccc3c(c2)C[C@H]2[C@H](C(=O)O)[C@@H]32)c1 [Example 30, (1S,1aS,6aR)-4-((2-fluoro-5-(6-(2-(3-hydroxyoxetan-3-yl)ethoxy)-4-methylpyridin-3-yl)benzyl)oxy)-1,1a,6,6a-tetrahydro-cyclopropa[a]indene-1-carboxylic acid] | 49.2 | 30 |
| Cc1nc(OCC2CCC[C@H](O)[C@@H]2O)ccc1-c1ccc(F)c(COc2ccc3c(c2)C[C@H]2[C@H](C(=O)O)[C@@H]32)c1 (stereo partly drawn) [Example 27, (1S,1aS,6aR)-4-((5-(6-(((2R,3S)-2,3-dihydroxycyclohexyl)methoxy)-2-methylpyridin-3-yl)-2-fluorobenzyl)oxy)-1,1a,6,6a-tetrahydrocyclopropa[a]indene-1-carboxylic acid] | 48.9 | 10 |
| Cc1nc(OCCCS(C)(=O)=O)ccc1-c1ccc(F)c(COc2ccc3c(c2)C[C@H]2[C@H](C(=O)O)[C@@H]32)c1 [Example 1, (1S,1aS,6aR)-4-[(2-fluoro-5-{2-methyl-6-[3-(methylsulfonyl)propoxy]pyridin-3-yl}benyzyl)oxy]-1,1a,6,6a-tetrahydrocyclopropa[a]indene-1-carboxylic acid] | 46 | 7.3 |
| Cc1cc(-c2ccc(F)c(COc3ccc4c(c3)C[C@H]3[C@H](C(=O)O)[C@@H]43)c2)c2c(cnn2C)n1 [Example 53, 7-(3-((((1S,1aS,6aR)-1-carboxy-1,1a,6,6a-tetrahydrocyclopropa[a]inden-4-yl)oxy)methyl)-4-fluorophenyl)-1,5-dimethyl-1H-pyrazolo[4,3-b]pyridin-4-ium formate] | 51.8 | 39 |
| Cc1cc(OCCCS(C)(=O)=O)nc(C)c1-c1ccc(F)c(COc2ccc3c(c2)C[C@H]2[C@H](C(=O)O)[C@@H]32)c1 [Example 6, 4-{2-Fluoro-5-[6-(3-methanesulfonyl-propoxy)-2,4-dimethyl-pyridin-3-yl]-benzyloxy}-1,1a,6,6a-tetrahydro-cyclopropa[a]indene-1-carboxylic acid] | 57.4 | 22.3 |
| Cc1nc(OCCCS(C)(=O)=O)ccc1-c1ccc(F)c(COc2ccc3c(c2)C[C@H]2[C@H](C(=O)O)[C@@H]32)c1F [Example 20, 4-(2,6-Difluoro-3-[6-(3-methanesulfonyl-propoxy)-2-methyl-pyridin-3-yl]-benzyloxy)-1,1a,6,6a-tetrahydro-cyclopropa[a]indene-1-carboxylic acid] | 179 | 51.5 |
| Cc1nc(OCC2CCOCC2)ccc1-c1ccc(F)c(COc2ccc3c(c2)C[C@H]2[C@H](C(=O)O)[C@@H]32)c1 [Example 28, (1S,1aS,6aR)-4-((2-fluoro-5-(2-methyl-6-((tetrahydro-2H-pyran-4-yl)methoxy)pyridin-3-yl)benzyl)oxy)-1,1a,6,6a-tetrahydrocyclopropa[a]indene-1-carboxylic acid] | 18.5 | 8 |
| Cc1nc(OCCCOCc2ccccc2)ccc1-c1ccc(F)c(COc2ccc3c(c2)C[C@H]2[C@H](C(=O)O)[C@@H]32)c1 [Example 34, (1S,1aS,6aR)-4-((5-(6-(3-(benzyloxy)propoxy)-2-methylpyridin-3-yl)-2-fluorobenzyl)oxy)-1,1a,6,6a-tetrahydrocyclo-propa[a]indene-1-carboxylic acid] | 75.1 | 889 |
| Cc1nc(OC2CCS(=O)(=O)CC2)ccc1-c1ccc(F)c(COc2ccc3c(c2)C[C@H]2[C@H](C(=O)O)[C@@H]32)c1 [Example 2, (1S,1aS,6aR)-4-[(5-{6-[(1,1-dioxidotetrahydro-2H-thiopyran-4-yl)oxy]-2-methylpyridin-3-yl)-2-fluorobenzyl]oxy}-1,1a,6,6a-tetrahydrocyclopropa[a]indene-1-carboxylic acid] | 70.2 | 18.5 |
| Cc1cc(NCCCS(C)(=O)=O)ncc1-c1ccc(F)c(COc2ccc3c(c2)C[C@H]2[C@H](C(=O)O)[C@@H]32)c1 [Example 14, 4-{2-Fluoro-5-[6-(3-methanesulfonyl-propylamino)-4-methyl-pyridin-3-yl]-benzyloxy}-1,1a,6,6a-tetrahydro-cyclopropa[a]indene-1-carboxylic acid] | 145 | 83.5 |
| Cc1nc(NCCCS(C)(=O)=O)ccc1-c1ccc(F)c(COc2ccc3c(c2)C[C@H]2[C@H](C(=O)O)[C@@H]32)c1 [Example 11, 4-{2-Fluoro-5-[6-(3-methanesulfonyl-propylamino)-2-methyl-pyridin-3-yl]-benzyloxy}-1,1a,6,6a-tetrahydro-cyclopropa[a]indene-1-carboxylic acid] | 55.9 | 43.5 |
| O=C(O)[C@H]1[C@@H]2Cc3cc(OCc4cc(-c5cnc6[nH]ccc6c5)ccc4F)ccc3[C@@H]21 [Example 24, (1S,1aS,6aR)-4-((2-fluoro-5-(1H-pyrrolo[2,3-b]pyridin-5-yl)benzyl)oxy)-1,1a,6,6a-tetrahydrocyclopropa[a]indene-1-carboxylic acid] | 73.3 | 304 |
| Cc1nc(N2CCC3(C=Cc4ccccc43)CC2)ccc1-c1ccc(F)c(COc2ccc3c(c2)C[C@H]2[C@H](C(=O)O)[C@@H]32)c1 [Example 40] | 32 | 519 |

More lines, now with the values ahead:

| EC50 (Human GPR40 [1]) [nM] | EC50 (Human GPR40 [2]) [nM] | SMILES |
| --- | --- | --- |
| 58 | 27 | Cc1nc(N2CCC(CS(C)(=O)=O)CC2)ccc1-c1ccc(F)c(COc2ccc3c(c2)C[C@H]2[C@H](C(=O)O)[C@@H]32)c1 [Example 50, (1S,1aS,6aR)-4-((2-fluoro-5-(2-methyl-6-(4-((methylsulfonyl)methyl)piperidin-1-yl)pyridine-3-yl)benzyl)oxy)-1,1a,6,6a-tetrahydrocyclopropa[a]indene-1-carboxylic acid] |
| 12.8 | 51 | Cc1nc(N2CCC(C(F)(F)F)CC2)ccc1-c1ccc(F)c(COc2ccc3c(c2)C[C@H]2[C@H](C(=O)O)[C@@H]32)c1 [Example 42, (1S,1aS,6aR)-4-((2-fluoro-5-(2-methyl-6-(4-(trifluoromethyl)piperidin-1-yl)pyridin-3-yl)benzyl)oxy)-1,1a,6,6a-tetrahydrocyclopropa[a]indene-1-carboxylic acid] |
| 75.5 | 13 | Cc1nc(N2CCC(C)(O)CC2)ccc1-c1ccc(F)c(COc2ccc3c(c2)C[C@H]2[C@H](C(=O)O)[C@@H]32)c1 [Example 43, (1S,1aS,6aR)-4-((2-fluoro-5-(6-(4-hydroxy-4-methylpiperidin-1-yl)-2-methylpyridin-3-yl)benzyl)oxy)-1,1a,6,6a-tetrahydrocyclopropa[a]indene-1-carboxylic acid] |
| 35.4 | 30 | Cc1c(-c2ccc(F)c(COc3ccc4c(c3)C[C@H]3[C@H](C(=O)O)[C@@H]43)c2)ccc2nc(-c3ccncc3)sc12 [Example 52, (1S,1aS,6aR)-4-((2-fluoro-5-(7-methyl-2-(pyridin-4-yl)benzo[d]thiazol-6-yl)benzyl)oxy)-1,1a,6,6a-tetrahydrocyclopropa[a]indene-1-carboxylic acid] |
| 23.3 | 26.3 | Cc1nc(N2CC(S(C)(=O)=O)C2)ccc1-c1ccc(F)c(COc2ccc3c(c2)C[C@H]2[C@H](C(=O)O)[C@@H]32)c1 [Example 51, (1S,1aS,6aR)-4-((2-fluoro-5-(2-methyl-6-(3-(methylsulfonyl)azetidin-1-yl)pyridin-3-yl)benzyl)oxy)-1,1a,6,6a-tetrahydrocyclopropa[a]indene-1-carboxylic acid] |
| 38.7 | 629 | Cc1nc(N2CCC(C#N)(c3ccccc3)CC2)nc(C)c1-c1ccc(F)c(COc2ccc3c(c2)C[C@H]2[C@H](C(=O)O)[C@@H]32)c1F [Example 46, (1S,1aS,6aR)-4-((3-(2-(4-cyano-4-phenylpiperidin-1-yl)-4,6-dimethylpyrimidin-5-yl)-2,6-difluorobenzyl)oxy)-1,1a,6,6a-tetrahydrocyclopropa[a]indene-1-carboxylic acid] |
